Measurements from ChEMBL document CHEMBL5370538, “Discovery of novel 6-p-tolyl-3-(3,4,5-trimethoxybenzyl)-7H-[1,2,4]triazolo[3,4-b][1,3,4]thiadiazine derivative as a potent tubulin inhibitor with promising in vivo antitumor activity” (Eur J Med Chem, 2023).
Active and inactive are the calls of the source. No cut-off for these calls is given here.

Key:
[1] = system: HT-29; test: Antiproliferative activity against human HT-29 cells assessed as cell growth inhibition incubated for 48 hrs by MTT assay; format: functional, cell-based; settings: HT-29, 48 h
[2] = system: MDA-MB-231; test: Antiproliferative activity against human MDA-MB-231 cells assessed as cell growth inhibition incubated for 48 hrs by MTT assay; format: functional, cell-based; settings: MDA-MB-231, 48 h
[3] = system: HeLa; test: Antiproliferative activity against human HeLa cells assessed as cell growth inhibition incubated for 48 hrs by MTT assay; format: functional, cell-based
[4] = system: A549; test: Antiproliferative activity against human A549 cells assessed as cell growth inhibition incubated for 48 hrs by MTT assay; format: functional, cell-based; settings: A549, 48 h
[5] = Antiproliferative activity against human HEK293 cells assessed as cell growth inhibition incubated for 48 hrs by MTT assay; format: toxicity, cell-based
[6] = molecular target: T1, Tubulin (Homo sapiens) (UniProt P68371+Q9H4B7+P0DPH7+P68366+Q13509+Q71U36+P04350+Q3ZCM7+P07437+P68363+Q9BQE3+Q6PEY2+Q13885+Q9BVA1+Q9BUF5); test: Inhibition of tubulin polymerization (unknown origin) at 10 uM measured for 20 mins in presence of GTP by spectrophotometry analysis relative to control; format: protein-complex assay
[7] = molecular target: T1, Tubulin (Homo sapiens); test: Inhibition of tubulin polymerization (unknown origin) at 10 uM measured for 20 mins in presence of GTP by spectrophotometry analysis; format: protein-complex assay

| Compound | IC50 [1] | other results |
| --- | --- | --- |
| COc1ccc(C2=Nn3c(COc4cc(OC)c(OC)c(OC)c4)nnc3SC2)cc1[N+](=O)[O-] | > 50 µM |  |
| COc1cc(Cc2nnc3n2N=C(c2ccc(N(C)C)cc2)CS3)cc(OC)c1OC | 35.2 µM |  |
| COc1ccc(C2=Nn3c(Cc4cc(OC)c(OC)c(OC)c4)nnc3SC2)cc1N | > 50 µM |  |
| COc1ccc(Cc2nnc(SCC(=O)c3ccc(C)cc3)n2N)c(OC)c1OC | 0.62 µM | IC50 [2]: > 50 µM; IC50 [3]: 9.02 µM; IC50 [4]: 11.8 µM; IC50 at 48 h [5]: > 100 µM |
| COc1cc(Cc2nnc3n2N=C(c2ccc(-c4ccccc4)cc2)CS3)cc(OC)c1OC | > 50 µM |  |
| COc1cc(OCc2nnc3n2N=C(c2ccc(C(F)(F)F)cc2)CS3)cc(OC)c1OC | > 50 µM |  |
| COc1cc(Cc2nnc3n2N=C(c2ccc(Cl)cc2)CS3)cc(OC)c1OC | 1.02 µM | IC50 [2]: 4.63 µM; inhibition [6]: 30%; IC50 [3]: 1.33 µM; IC50 [4]: 5.77 µM; IC50 at 48 h [5]: > 100 µM |
| COc1cc(Cc2nnc3n2N=C(c2ccccc2F)CS3)cc(OC)c1OC | 44.6 µM |  |
| COc1ccc(C2=Nn3c(COc4cc(OC)c(OC)c(OC)c4)nnc3SC2)cc1OC(C)=O | 26.2 µM |  |
| COc1ccc(C2=Nn3c(COc4cc(OC)c(OC)c(OC)c4)nnc3SC2)cc1N | 4.93 µM |  |
| COc1ccc(/C=C\c2cc(OC)c(OC)c(OC)c2)cc1O [COMBRETASTATIN A4] | 1.18 µM | IC50 [2]: 0.077 µM; IC50 [3]: 0.043 µM |
| COc1cc(OCc2nnc3n2N=C(c2ccc(SC)cc2)CS3)cc(OC)c1OC | > 50 µM |  |
| COc1cc(OCc2nnc3n2N=C(c2ccc(N(C)C)cc2)CS3)cc(OC)c1OC | 0.41 µM | IC50 [2]: 9.73 µM; inhibition [6]: 12%; IC50 [3]: 2.2 µM; IC50 [4]: > 50 µM; IC50 at 48 h [5]: > 100 µM |
| CC(=O)O[C@H]1C(=O)[C@@]2(C)[C@H]([C@H](OC(=O)c3ccccc3)[C@]3(O)C[C@H](OC(=O)[C@H](O)[C@@H](NC(=O)c4ccccc4)c4ccccc4)C(C)=C1C3(C)C)[C@]1(OC(C)=O)CO[C@@H]1C[C@@H]2O |  | inhibition [7]: inactive |
| COc1ccc(C2=Nn3c(COc4cc(OC)c(OC)c(OC)c4)nnc3SC2)cc1F | > 50 µM |  |
| COc1cc(OCc2nnc3n2N=C(c2ccc(N)cc2)CS3)cc(OC)c1OC | > 50 µM |  |
| COc1cc(Cc2nnc3n2N=C(c2ccc(F)cc2)CS3)cc(OC)c1OC | > 50 µM |  |
| COc1cc(OCc2nnc3n2N=C(c2ccc(C)cc2)CS3)cc(OC)c1OC | 0.46 µM | IC50 [2]: 12.8 µM; inhibition [6]: 11%; IC50 [3]: > 50 µM; IC50 [4]: 30.6 µM; IC50 at 48 h [5]: > 100 µM |

Now from value to compound, other results behind:

| IC50 [1] | Compound | other results |
| --- | --- | --- |
| > 50 µM | COc1cc(Cc2nnc3n2N=C(c2ccc([N+](=O)[O-])cc2)CS3)cc(OC)c1OC |  |
| 9.69 µM | COc1ccc(C2=Nn3c(Cc4cc(OC)c(OC)c(OC)c4)nnc3SC2)cc1O |  |
| 42.8 µM | COc1ccc(C2=Nn3c(Cc4cc(OC)c(OC)c(OC)c4)nnc3SC2)cc1 |  |
| > 50 µM | COc1cc(Cc2nnc3n2N=C(c2ccccc2)CS3)cc(OC)c1OC |  |
| 43.6 µM | COc1cc(Cc2nnc3n2N=C(c2ccc(Br)cc2)CS3)cc(OC)c1OC |  |
| 48.1 µM | COc1cc(OCc2nnc3n2N=C(c2ccc(Cl)c(Cl)c2)CS3)cc(OC)c1OC |  |
| > 50 µM | COc1cc(Cc2nnc3n2N=C(c2cccs2)CS3)cc(OC)c1OC |  |
| 32 µM | COc1cccc(C2=Nn3c(Cc4cc(OC)c(OC)c(OC)c4)nnc3SC2)c1 |  |
| 36.4 µM | COc1ccc(C2=Nn3c(COc4cc(OC)c(OC)c(OC)c4)nnc3SC2)cc1O |  |
| 49.2 µM | COc1ccc(C2=Nn3c(Cc4cc(OC)c(OC)c(OC)c4)nnc3SC2)cc1[N+](=O)[O-] |  |
| > 50 µM | COc1ccc(C2=Nn3c(COc4cc(OC)c(OC)c(OC)c4)nnc3SC2)cc1OC |  |
| 5.03 µM | COc1cc(Cc2nnc3n2N=C(c2ccc(C(F)(F)F)cc2)CS3)cc(OC)c1OC |  |
